Experimental data as given in patent US9695155B2, “Herbicidal substituted pyrimidinyloxy benzene compounds” (E. I. DU PONT DE NEMOURS AND COMPANY, priority 2013, dated 2017).

Columns and labels:
barnyardgrass [1] = experiment: Test A preemergence; format: in vivo, Echinochloa crus-galli; conditions: for Barnyardgrass plant response rating (0 to 100 scale): 31 g ai/ha; for Plant response rating, Barnyardgrass: 125 g ai/ha, 0 to 100 scale where 0 is no effect and 100 is complete control
In short: (§1)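 Compounds in non-phytotoxic solvent with surfactant applied as soil spray preemergence, or postemergence to plants 2-10 cm at one- to two-leaf stage, in loam/sand. After approximately 10 days in greenhouse, injury rated visually versus untreated controls, 0 (no effect) to 100 (complete control).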

galium = experiment: Test A postemergence; format: in vivo, Galium aparine
In short: as §1

giant foxtail [2] = experiment: Test A postemergence; format: in vivo, Setaria faberii
In short: as §1

Italian ryegrass [3] = experiment: Test A preemergence; format: in vivo, Lolium multiflorum; conditions: for Ryegrass, Italian plant response rating (0 to 100 scale): 31 g ai/ha; for Plant response rating, Ryegrass, Italian: 125 g ai/ha, 0 to 100 scale where 0 is no effect and 100 is complete control
In short: as §1

blackgrass = experiment: Test A postemergence; format: in vivo, Alopecurus myosuroides
In short: as §1

sedge, umbrella = experiment: Test B flooded paddy test; format: in vivo, Cyperus difformis; conditions: Flood, 250 g ai/ha; 0 to 100 scale where 0 is no effect and 100 is complete control
In short: (§2)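 Evaluation is visual, against untreated controls, 13 to 15 days after treatment. Before treatment, plants reached the 2-leaf stage; pots were then flooded 3 cm deep, compound was added to the water, and that level was maintained. Ratings run 0 to 100, with 100 meaning complete control.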

barnyardgrass [4] = experiment: Test A postemergence; format: in vivo, Echinochloa crus-galli
In short: as §1

barnyardgrass [5] = experiment: Test B flooded paddy test; format: in vivo, Echinochloa crus-galli; conditions: Flood, 250 g ai/ha; 0 to 100 scale where 0 is no effect and 100 is complete control
In short: as §2

ragweed [6] = experiment: Test A preemergence; format: in vivo, Ambrosia elatior; conditions: for Ragweed plant response rating (0 to 100 scale): 31 g ai/ha; for Plant response rating, Ragweed: 125 g ai/ha, 0 to 100 scale where 0 is no effect and 100 is complete control
In short: as §1

rice = experiment: Test B flooded paddy test; format: in vivo, Oryza sativa; conditions: Flood, 250 g ai/ha; 0 to 100 scale where 0 is no effect and 100 is complete control
In short: as §2

Heteranthera limosa = experiment: Test B flooded paddy test; format: in vivo; conditions: Flood, 250 g ai/ha; 0 to 100 scale where 0 is no effect and 100 is complete control
In short: as §2

kochia [7] = experiment: Test A preemergence; format: in vivo, Kochia scoparia; conditions: for Kochia plant response rating (0 to 100 scale): 31 g ai/ha; for Plant response rating, Kochia: 125 g ai/ha, 0 to 100 scale where 0 is no effect and 100 is complete control
In short: as §1

wheat = experiment: Test A postemergence; format: in vivo, Triticum aestivum; conditions: for Plant response rating, Wheat: 31 g ai/ha, 0 to 100 scale, 0 no effect, 100 complete control; for Wheat plant response rating: 125 g ai/ha, 0 to 100 scale where 0 is no effect and 100 is complete control
In short: as §1

corn = experiment: Test A postemergence; format: in vivo, Zea mays
In short: as §1

pigweed [8] = experiment: Test A preemergence; format: in vivo, Amaranthus retroflexus; conditions: for Pigweed plant response rating (0 to 100 scale): 31 g ai/ha; for Plant response rating, Pigweed: 125 g ai/ha, 0 to 100 scale where 0 is no effect and 100 is complete control
In short: as §1

giant foxtail [9] = experiment: Test A preemergence; format: in vivo, Setaria faberii; conditions: for Foxtail, Giant plant response rating (0 to 100 scale): 31 g ai/ha; for Plant response rating, Foxtail, Giant: 125 g ai/ha, 0 to 100 scale where 0 is no effect and 100 is complete control
In short: as §1

ragweed [10] = experiment: Test A postemergence; format: in vivo, Ambrosia elatior; conditions: for Plant response rating, Ragweed: 31 g ai/ha, 0 to 100 scale, 0 no effect, 100 complete control; for Ragweed plant response rating: 125 g ai/ha, 0 to 100 scale where 0 is no effect and 100 is complete control
In short: as §1

pigweed [11] = experiment: Test A postemergence; format: in vivo, Amaranthus retroflexus; conditions: for Plant response rating, Pigweed: 31 g ai/ha, 0 to 100 scale, 0 no effect, 100 complete control; for Pigweed plant response rating: 125 g ai/ha, 0 to 100 scale where 0 is no effect and 100 is complete control
In short: as §1

Italian ryegrass [12] = experiment: Test A postemergence; format: in vivo, Lolium multiflorum; conditions: for Plant response rating, Ryegrass, Italian: 31 g ai/ha, 0 to 100 scale, 0 no effect, 100 complete control; for Ryegrass, Italian plant response rating: 125 g ai/ha, 0 to 100 scale where 0 is no effect and 100 is complete control
In short: as §1

kochia [13] = experiment: Test A postemergence; format: in vivo, Kochia scoparia
In short: as §1

[14] = 31 g ai/ha, 0 to 100 scale, 0 no effect, 100 complete control
[15] = 125 g ai/ha, 0 to 100 scale where 0 is no effect and 100 is complete control

FCc1cccc(Oc2ncc(Cl)cn2)c1-n1cc(C(F)(F)F)cn1 [Compound 119]
30: Barnyardgrass plant response rating (0 to 100 scale) (barnyardgrass [1]) | Plant response rating, Foxtail, Giant (giant foxtail [2]; [14]) | Plant response rating, Ragweed (ragweed [10]) | Plant response rating, Ryegrass, Italian (Italian ryegrass [12])
80: Plant response rating, Foxtail, Giant (giant foxtail [2]; [15]) | Plant response rating, Ryegrass, Italian (Italian ryegrass [3])
10: Ryegrass, Italian plant response rating (0 to 100 scale) (Italian ryegrass [3]) | Plant response rating, Wheat (wheat) | Plant response rating, Corn (corn; [14])
100: Plant response rating, Galium (galium; [15]) | Plant response rating, Kochia (kochia [7]) | Pigweed plant response rating (0 to 100 scale) (pigweed [8]) | Plant response rating, Pigweed (pigweed [8]) | Plant response rating, Foxtail, Giant (giant foxtail [9])
0: Ragweed plant response rating (0 to 100 scale) (ragweed [6])
90: Plant response rating, Barnyardgrass (barnyardgrass [1]) | Foxtail, Giant plant response rating (0 to 100 scale) (giant foxtail [9]) | Plant response rating, Kochia (kochia [13]; [15])
40: Plant response rating, Blackgrass (blackgrass; [14]) | Plant response rating, Barnyardgrass (barnyardgrass [4]; [14]) | Plant response rating, Barnyardgrass (barnyardgrass [5])
25: Plant response rating, Rice (rice)
60: Plant response rating, Ragweed (ragweed [6])
95: Plant response rating, Sedge, Umbrella (sedge, umbrella) | Plant response rating, Ducksalad (Heteranthera limosa)
70: Plant response rating, Galium (galium; [14]) | Plant response rating, Blackgrass (blackgrass; [15]) | Plant response rating, Barnyardgrass (barnyardgrass [4]; [15]) | Plant response rating, Pigweed (pigweed [11]) | Plant response rating, Kochia (kochia [13]; [14])
50: Kochia plant response rating (0 to 100 scale) (kochia [7]) | Plant response rating, Corn (corn; [15])

COc1cnn(-c2c(F)cccc2Oc2ncc(Cl)cn2)c1 [Compound 121]
90: Plant response rating, Pigweed (pigweed [8])
30: Plant response rating, Barnyardgrass (barnyardgrass [1]) | Galium plant response rating (galium; [15]) | Foxtail, Giant plant response rating (giant foxtail [2]; [15]) | Blackgrass plant response rating (blackgrass; [15])
60: Plant response rating, Kochia (kochia [7]) | Pigweed plant response rating (0 to 100 scale) (pigweed [8])
20: Barnyardgrass plant response rating (barnyardgrass [4]; [15]) | Plant response rating, Barnyardgrass (barnyardgrass [5]) | Plant response rating, Kochia (kochia [13]; [14])
10: Plant response rating, Galium (galium; [14]) | Plant response rating, Blackgrass (blackgrass; [14]) | Plant response rating, Ragweed (ragweed [6]) | Corn plant response rating (corn; [15]) | Foxtail, Giant plant response rating (0 to 100 scale) (giant foxtail [9]) | Plant response rating, Ragweed (ragweed [10]) | Plant response rating, Pigweed (pigweed [11])
40: Ragweed plant response rating (ragweed [10]) | Pigweed plant response rating (pigweed [11]) | Kochia plant response rating (kochia [13]; [15])
45: Plant response rating, Ducksalad (Heteranthera limosa)
0: Barnyardgrass plant response rating (0 to 100 scale) (barnyardgrass [1]) | Plant response rating, Foxtail, Giant (giant foxtail [2]; [14]) | Ryegrass, Italian plant response rating (0 to 100 scale) (Italian ryegrass [3]) | Plant response rating, Ryegrass, Italian (Italian ryegrass [3]) | Plant response rating, Sedge, Umbrella (sedge, umbrella) | Plant response rating, Barnyardgrass (barnyardgrass [4]; [14]) | Ragweed plant response rating (0 to 100 scale) (ragweed [6]) | Plant response rating, Rice (rice) | Kochia plant response rating (0 to 100 scale) (kochia [7]) | Plant response rating, Wheat (wheat) | Wheat plant response rating (wheat) | Plant response rating, Corn (corn; [14]) | Plant response rating, Ryegrass, Italian (Italian ryegrass [12]) | Ryegrass, Italian plant response rating (Italian ryegrass [12])
50: Plant response rating, Foxtail, Giant (giant foxtail [9])

FCc1cccc(Oc2ncc(Br)cn2)c1-n1cc(Br)cn1 [Compound 125]
10: Barnyardgrass plant response rating (0 to 100 scale) (barnyardgrass [1]) | Plant response rating, Ragweed (ragweed [6]) | Ragweed plant response rating (ragweed [10]) | Ryegrass, Italian plant response rating (Italian ryegrass [12])
0: Plant response rating, Foxtail, Giant (giant foxtail [2]; [14]) | Ryegrass, Italian plant response rating (0 to 100 scale) (Italian ryegrass [3]) | Plant response rating, Barnyardgrass (barnyardgrass [4]; [14]) | Plant response rating, Barnyardgrass (barnyardgrass [5]) | Ragweed plant response rating (0 to 100 scale) (ragweed [6]) | Plant response rating, Rice (rice) | Plant response rating, Wheat (wheat) | Plant response rating, Ragweed (ragweed [10]) | Plant response rating, Ryegrass, Italian (Italian ryegrass [12])
80: Plant response rating, Barnyardgrass (barnyardgrass [1]) | Foxtail, Giant plant response rating (giant foxtail [2]; [15]) | Blackgrass plant response rating (blackgrass; [15])
100: Plant response rating, Pigweed (pigweed [8]) | Plant response rating, Foxtail, Giant (giant foxtail [9])
70: Plant response rating, Sedge, Umbrella (sedge, umbrella) | Plant response rating, Ducksalad (Heteranthera limosa) | Pigweed plant response rating (0 to 100 scale) (pigweed [8]) | Pigweed plant response rating (pigweed [11])
50: Plant response rating, Kochia (kochia [7]) | Corn plant response rating (corn; [15])
20: Plant response rating, Galium (galium; [14]) | Plant response rating, Ryegrass, Italian (Italian ryegrass [3]) | Kochia plant response rating (0 to 100 scale) (kochia [7]) | Wheat plant response rating (wheat) | Plant response rating, Corn (corn; [14]) | Foxtail, Giant plant response rating (0 to 100 scale) (giant foxtail [9])
90: Galium plant response rating (galium; [15]) | Barnyardgrass plant response rating (barnyardgrass [4]; [15])
30: Plant response rating, Pigweed (pigweed [11])
40: Plant response rating, Blackgrass (blackgrass; [14]) | Plant response rating, Kochia (kochia [13]; [14]) | Kochia plant response rating (kochia [13]; [15])
